Reference: patent US20240279227A1, “FUSED HETEROCYCLIC DERIVATIVES” (Janssen Sciences Ireland Unlimited Company, priority 2021, published 2024)

Experiments:
[1] = Cytotoxicity, ATPlite Luminescence Assay; type: cell-based, human; details: human, HepG2 or HepG2.117 cells, 3-days incubation unless marked with *, ATPlite viability
Protocol: Cytotoxicity of the compounds was tested using HepG2 or HepG2.117 cells, incubated for 3 or 4 days in the presence of compounds. The viability of the cells was assessed using the PERKIN ELMER ATPlite Luminescence Assay System.”

[2] = Human liver microsome stability; type: in vitro ADME; details: 1 μM compound, NADPH 1 mM, pH 7.4, 37° C., 0-60 min; for half-life at 1 μM: human, pooled human liver microsomes, pH 7.4, pooled human liver microsomes 0.5 mg/mL, read-out: HLM Metabolism t1/2
Protocol: Pooled human liver microsomes (0.5 mg/mL) was pre-incubated with 1 μM test compounds or control compounds (verapamil, warfarin and cerivastatin) in 0.1 M phosphate buffer pH 7.4 containing 1 mM MgCl2 at 37° C. The final concentration of DMSO and acetonitrile are 0.05% and 0.2%, respectively. All incubations are performed singularly for each compound. NADPH was added to initiate the reaction with the final concentration of 1 mM and the final incubation volume of 400 μL.
At 6 time points (0, 5, 10, 20, 40 and 60 min) reactions were stopped by the removal of 50 μL of the incubation mixture into plates containing acetonitrile at a of 1:3 (v:v). The plates were centrifuged at 3000 rpm for 10 min at 4° C. to precipitate the protein. Following protein precipitation, the sample supernatants were combined in cassettes of up to 8 compounds. The internal standard was added (1:1 supernatant to internal standard solution) and samples were analyzed using standard LC-MS conditions.
From a plot of ln peak area ratio (compound peak area/internal standard peak area) against time, the gradient of the line is determined. Subsequently, half-life is calculated using the equations below: […]

[3] = tested on: HBV; test: Anti-HBV activity in HepG2.117 cell line (intracellular HBV DNA, real-time PCR); type: cell-based, hepatitis B virus; details: HepG2.117 cells, HBV replication induced, 3 days of treatment, intracellular HBV DNA by real-time PCR
Protocol: The anti HBV activity was measured using the HepG2.117 cell line, a stable, inducibly HBV producing cell line, which replicates HBV in the absence of doxycycline (Tet-off system). The HepG2 cell line is available from ATCCR under number HB-8065. Transfection of the HepG2 cell line can be as described in Sun and Nassal 2006 Journal of Hepatology 45 (2006) 636-645 “Stable HepG2-and Huh7-based human hepatoma cell lines for efficient regulated expression of infectious hepatitis B virus”.
For the antiviral assay, HBV replication was induced, followed by a treatment with serially diluted compound in 96-well plates. After 3 days of treatment, the antiviral activity was determined by quantification of intracellular HBV DNA using real-time PCR and an HBV specific primer set and probe.

[4] = Hepatitis B virus, HepG2.117, 72 h

SMILES	CC50 [1] [µM]	half-life at 1 μM [2] [h]	EC50 [3, 4] [µM]	EC50 [3] [µM]	HLM Metabolism t1/2 ([2]; pooled human liver microsomes 0.5 mg/mL) [h]
CNC(=O)[C@@H]1CN(C(C)c2ccc(C(C)(C)O)cc2)C(=O)c2c3c(nn21)C[C@@H](C)N(C(=O)c1ccc(Cl)c(Cl)c1)C3 (single isomer, unassigned) [Compound 5B, (3R,7S)-2-(3,4-Dichlorobenzoyl)-9-((S*)-1-(4-(2-hydroxypropan-2-yl)phenyl)ethyl)-N,3-dimethyl-10-oxo-1,2,3,4,7,8,9,10-octahydropyrido[4′,3′:3,4]pyrazolo[1,5-a]pyrazine-7-carboxamide]	> 50	1.44	0.019	–	–
CC(c1ccc(OC(F)F)nc1)N1C[C@@H](C(N)=O)n2nc3c(c2C1=O)CN(C(=O)c1ccc(Cl)c(Cl)c1)[C@H](C)C3 (single isomer, unassigned) [Compound 12A, (3R,7S)-2-(3,4-Dichlorobenzoyl)-9-((R*)-1-(6-(difluoromethoxy)pyridin-3-yl)ethyl)-3-methyl-10-oxo-1,2,3,4,7,8,9,10-octahydropyrido[4′,3′:3,4]pyrazolo[1,5-a]pyrazine-7-carboxamide]	24.4	> 3	–	0.059	–
CNC(=O)[C@@H]1CN([C@@H](C)c2ccc(OC(F)F)cc2)C(=O)c2c3c(nn21)C[C@@H](C)N(C(=O)c1ccc(Cl)c(C(F)(F)F)n1)C3 [Compound 45, (3R,7S)-2-(5-Chloro-6-(trifluoromethyl)picolinoyl)-9-((S)-1-(4-(difluoromethoxy)phenyl)ethyl)-N,3-dimethyl-10-oxo-1,2,3,4,7,8,9,10-octahydropyrido[4′,3′:3,4]pyrazolo[1,5-a]pyrazine-7-carboxamide]	49.8	> 3	0.067	–	–
CNC(=O)[C@@H]1CN([C@H](C)c2ccc(S(C)(=O)=O)cc2)C(=O)c2c3c(nn21)C[C@@H](C)N(C(=O)c1ccc(Cl)c(Cl)c1)C3 [Compound 18A, (3R,7S)-2-(3,4-Dichlorobenzoyl)-N,3-dimethyl-9-((R)-1-(4-(methylsulfonyl)phenyl)ethyl)-10-oxo-1,2,3,4,7,8,9,10-octahydropyrido[4′,3′:3,4]pyrazolo[1,5-a]pyrazine-7-carboxamide]	> 50	> 3	0.597	–	–
CNC(=O)[C@@H]1CN(C(C)c2ccc(-c3c(C)noc3C)nc2)C(=O)c2c3c(nn21)C[C@@H](C)N(C(=O)c1ccc(Cl)c(Cl)c1)C3 (single isomer, unassigned) [Compound 35A, (3R,7S)-2-(3,4-Dichlorobenzoyl)-9-((R*)-1-(6-(3,5-dimethylisoxazol-4-yl)pyridin-3-yl)ethyl)-N,3-dimethyl-10-oxo-1,2,3,4,7,8,9,10-octahydropyrido[4′,3′:3,4]pyrazolo[1,5-a]pyrazine-7-carboxamide]	> 50	1.16	–	0.39	–
CNC(=O)[C@@H]1CN(Cc2ccc(OC(F)F)cc2)C(=O)c2c3c(nn21)C[C@@H](C)N(C(=O)c1ccc(Cl)c(C(F)(F)F)c1)C3 [Compound 28, (3R,7S)-2-(4-Chloro-3-(trifluoromethyl)benzoyl)-9-(4-(difluoromethoxy)benzyl)-N,3-dimethyl-10-oxo-1,2,3,4,7,8,9,10-octahydropyrido[4′,3′:3,4]pyrazolo[1,5-a]pyrazine-7-carboxamide]	29.5	> 3	0.019	–	–
CNC(=O)[C@@H]1CN(C(C)c2ccc(C3CC3)nc2)C(=O)c2c3c(nn21)C[C@@H](C)N(C(=O)c1ccc(Cl)c(Cl)c1)C3 (single isomer, unassigned) [Compound 32A, (3R,7S)-9-((R*)-1-(6-Cyclopropylpyridin-3-yl)ethyl)-2-(3,4-dichlorobenzoyl)-N,3-dimethyl-10-oxo-1,2,3,4,7,8,9,10-octahydropyrido[4′,3′:3,4]pyrazolo[1,5-a]pyrazine-7-carboxamide]	> 50	2.12	–	0.055	–
C[C@@H]1Cc2nn3c(c2CN1C(=O)c1ccc(Cl)c(Cl)c1)C(=O)N([C@H](C)c1ccc(OC(F)F)cc1)CC3 [Ref 1, reference compound]	> 50	0.257	0.069	–	–
CNC(=O)[C@@H]1CN(C(C)c2ccc(NCC(F)(F)F)nc2)C(=O)c2c3c(nn21)C[C@@H](C)N(C(=O)c1ccc(Cl)c(Cl)c1)C3 (single isomer, unassigned) [Compound 33A, (3R,7S)-2-(3,4-Dichlorobenzoyl)-N,3-dimethyl-10-oxo-9-((R*)-1-(6-((2,2,2-trifluoroethyl)amino)pyridin-3-yl)ethyl)-1,2,3,4,7,8,9,10-octahydropyrido[4′,3′:3,4]pyrazolo[1,5-a]pyrazine-7-carboxamide]	> 50	–	0.062	–	0.798
CNC(=O)[C@@H]1CN(C(C)c2ccc(C#N)cc2)C(=O)c2c3c(nn21)C[C@@H](C)N(C(=O)c1ccc(Cl)c(Cl)c1)C3 (single isomer, unassigned) [Compound 23A, (3R,7S)-9-((R*)-1-(4-Cyanophenyl)ethyl)-2-(3,4-dichlorobenzoyl)-N,3-dimethyl-10-oxo-1,2,3,4,7,8,9,10-octahydropyrido[4′,3′:3,4]pyrazolo[1,5-a]pyrazine-7-carboxamide]	> 50	> 3	–	0.06	–
CNC(=O)[C@@H]1CN(Cc2ccc(S(=O)(=O)C3CC3)cc2)C(=O)c2c3c(nn21)C[C@@H](C)N(C(=O)c1ccc(Cl)c(C(F)(F)F)c1)C3 [Compound 21, (3R,7S)-2-(4-Chloro-3-(trifluoromethyl)benzoyl)-9-(4-(cyclopropylsulfonyl)benzyl)-N,3-dimethyl-10-oxo-1,2,3,4,7,8,9,10-octahydropyrido[4′,3′:3,4]pyrazolo[1,5-a]pyrazine-7-carboxamide]	> 50	> 3	0.086	–	–
CNC(=O)[C@@H]1CN([C@H](C)c2cnc(C(F)(F)F)nc2)C(=O)c2c3c(nn21)C[C@@H](C)N(C(=O)c1ccc(Cl)c(Cl)c1)C3 [Compound 4A, (3R,7S)-2-(3,4-Dichlorobenzoyl)-N,3-dimethyl-10-oxo-9-((R)-1-(2-(trifluoromethyl)pyrimidin-5-yl)ethyl)-1,2,3,4,7,8,9,10-octahydropyrido[4′,3′:3,4]pyrazolo[1,5-a]pyrazine-7-carboxamide]	> 50	> 3	2.44	–	–
CNC(=O)[C@@H]1CN(C(C)c2cccc(Cl)n2)C(=O)c2c3c(nn21)C[C@@H](C)N(C(=O)c1ccc(Cl)c(Cl)c1)C3 (single isomer, unassigned) [Compound 38A, (3R,7S)-9-((R*)-1-(6-Chloropyridin-2-yl)ethyl)-2-(3,4-dichlorobenzoyl)-N,3-dimethyl-10-oxo-1,2,3,4,7,8,9,10-octahydropyrido[4′,3′:3,4]pyrazolo[1,5-a]pyrazine-7-carboxamide]	> 50	> 3	0.068	–	–
CNC(=O)[C@@H]1CN([C@@H](C)c2ccc(OC(F)F)cc2)C(=O)c2c3c(nn21)C[C@@H](C)N(C(=O)c1ccc(Cl)c(Cl)c1)C3 [Compound 16B, (3R,7S)-2-(3,4-dichlorobenzoyl)-9-((S)-1-(4-(difluoromethoxy)phenyl)ethyl)-N,3-dimethyl-10-oxo-1,2,3,4,7,8,9,10-octahydropyrido[4′,3′:3,4]pyrazolo[1,5-a]pyrazine-7-carboxamide]	16.9	> 3	0.02	–	–
CC(c1ccccn1)N1CCn2nc3c(c2C1=O)CN(C(=O)c1ccc(Cl)c(Cl)c1)[C@H](C)C3 (mixture of isomers) [Ref 3, reference compound]	–	0.11	0.072	–	–
C[C@@H]1Cc2nn3c(c2CN1C(=O)c1ccc(Cl)c(Cl)c1)C(=O)N([C@H](C)c1ccc(C#N)cc1)CC3 [Ref 4, reference compound]	–	0.225	0.076	–	–
C[C@@H]1Cc2nn3c(c2CN1C(=O)c1ccc(Cl)c(Cl)c1)C(=O)N([C@@H](C)c1ccc(C#N)cc1)CC3 [Ref 5, reference compound]	–	0.132	0.022	–	–
